The results in this text go back to patent US20250248979A1, “NOVEL GPX4 INHIBITORS AND USES THEREOF” (THE TRUSTEES OF COLUMBIA UNIVERSITY IN THE CITY OF NEW YORK, priority 2022, published 2025).

For test [1], the system named is HT-1080 cells. Nature of the test: Cellular dose response assay, HT-1080 with and without Fer-1. The class given is cell-based, human. The conditions noted are these: for Selectivity: ferroptosis selectivity, IC50 with Fer-1 / IC50; for IC50: Table 10. The source says:
HT-1080 (human [Homo sapiens] […] fibrosarcoma), A-673 (human [Homo sapiens] […] Ewing's sarcoma), and SK-HEP-1 (human [Homo sapiens] […] hepatic adenocarcinoma), cells were obtained from ATCC. Huh7 (human [Homo sapiens] […] hepatocellular carcinoma), HLF (human [Homo sapiens] […] hepatocellular carcinoma), HepG2 (human [Homo sapiens] […] hepatocellular carcinoma), cells were obtained from the Cancer Cell Bank at Columbia University Irving Medical Center. HT-1080, A-673, Huh-7, and HLF cells were grown in Dulbecco's Modified Eagle Medium (DMEM) supplemented with 10% heat inactivated fetal bovine serum (HI-FBS), 1% non-essential amino acids, and 1% penicillin streptomycin. HepG2 and SK-HEP-1 cells were grown in Eagle's Minimum Essential Medium (EMEM) supplemented with 10% HI-FBS, and 1% penicillin-streptomycin. All cells were cultured at 37° C. and 5% CO2.
HT-1080, HepG2, Huh7, HLF, and SK-HEP-1 cells were seeded into opaque white 384-well plates at 1500 cells per well then incubated at 37° C. with 5% CO2 overnight. The next day, compounds of interest were dissolved in DMSO and 12-point 2-fold dilution series were prepared with and without Fer-1. Cells were treated in triplicate (final DMSO concentration of 0.4% in all wells, including DMSO-only control wells) and incubated for a further 48 hours at 37° C. and 5% CO2. Cell viability was evaluated using CellTiter-Glo (Promega G7573) and luminescence was recorded on a Victor 5 plate reader. Data were analyzed in GraphPad Prism 9 and error bars represent standard deviation values for three technical replicates in a representative experiment.

Test [2] addresses T1, GPX4 (Homo sapiens, UniProt P36969).
T1 sequence (P36969 1-170 isoform P36969-2): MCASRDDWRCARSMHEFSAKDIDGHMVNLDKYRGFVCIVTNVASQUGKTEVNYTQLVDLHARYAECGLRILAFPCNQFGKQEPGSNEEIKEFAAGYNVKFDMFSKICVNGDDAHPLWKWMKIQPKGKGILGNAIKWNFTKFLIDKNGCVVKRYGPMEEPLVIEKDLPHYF
Nature of the test: GPX4 activity assay in cell lysates (NADPH-coupled). The class given is biochemical. Set-up: endogenous in cells; host or cells: A-673 cell lysate. The method, boiled down: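 Native GPX4 in lysates of A-673 cells grown with 20 nM sodium selenite; lysate preincubated with compound 45 min at 37 °C in pH 8.0 buffer with 3 mM GSH, 0.5 mM NADPH and glutathione reductase. Reaction started with phosphatidylcholine hydroperoxide; NADPH consumption followed at 340 nm over 25 min; triplicates.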

Where [3] appears, read: with Fer-1, read-out: IC50 (μM) HT1080 + Fer-1.
The mark [4] stands for this setting: without Fer-1, read-out: IC50 (μM) HT1080.

SMILES strings stand for the structures. Like-named read-outs stand apart in the source and are kept apart here.

Turning to `COc1ccc(-c2ccc3c(c2)c(C(=O)NC(C)(C)COC(=O)CCl)nn3Cc2cc(Cl)cc(Cl)c2)cc1Cl` [QW-979], the Selectivity in test [1] is recorded as 1.8. The IC50 (as a rule, the concentration at which inhibition is half-maximal) in test [1] (setting [3]) was 12.5 µM; in test [1] (setting [4]), 6.9 µM. For `CC(C)(COC(=O)CCl)NC(=O)c1nn(Cc2cc(Cl)cc(Cl)c2)c2cc(-c3ccc(OC(F)(F)F)c(Cl)c3)ccc12` [QW-991] the same measures were 32.0, 21.1 µM and 0.66 µM. For `COc1ccc(-c2ccc3c(C(=O)NC(C)(C)COC(=O)CCl)n(Cc4ccc(Cl)c(Cl)c4)nc3c2)cc1Cl` [QW-972] the same measures were 1.5, 5.5 µM and 3.6 µM. With `COC(=O)/C=C/C(=O)OCC(C)(C)NC(=O)c1nn(Cc2cc(Cl)cc(Cl)c2)c2cc(-c3ccc(N4CCOCC4)c(Cl)c3)ccc12` [QW-1001], the IC50 in test [1] (setting [3]) and in test [1] (setting [4]) was greater than 40 µM each time.

In the case of `CCOc1ccc(-c2ccc3c(C(=O)NC(C)(C)COC(=O)CCl)nn(Cc4cc(Cl)cc(Cl)c4)c3c2)cc1Cl` [QW-983], the Selectivity in test [1] stood at 8.7. Also, the IC50 in test [1] (setting [3]) was 19.2 µM; in test [1] (setting [4]) it was 2.2 µM. Molecule `CC(C)(COC(=O)CCl)NC(=O)c1c2ccc(-c3ccc(N4CCOCC4)c(Cl)c3)cc2nn1Cc1ccc(Cl)nc1` [QW-904] yielded a ferroptosis selectivity in test [1] (HT-1080) of 3.8. The same molecule gave a Selectivity in test [1] of 3.8. For the same molecule, the values for the IC50 in test [1] (setting [3]) and in test [1] (setting [4]) were 2.8 µM and 0.74 µM, respectively. As to `CC=CC(=O)OCC(C)(C)NC(=O)c1nn(Cc2cc(Cl)cc(Cl)c2)c2cc(-c3ccc(N4CCOCC4)c(Cl)c3)ccc12` [QW-1002], the 50% inhibitory concentration (IC50) in test [1] (setting [3]) and in test [1] (setting [4]) was greater than 40 µM each time. For `COc1ncc(-c2ccc3c(C(=O)NC(C)(C)COC(=O)CCl)nn(C)c3c2)cc1F` [QW-768], in test [2], the “GPX4% inhibition at 2.5 μM” value is listed as 32.6 ± 7.9%. Regarding `CSc1ccc(-c2ccc3c(C(=O)NC(C)(C)CNC(=O)CCl)nn(C)c3c2)cc1Cl` [QW-631], the “GPX4% inhibition at 2.5 μM” value in test [2] was 14.3 ± 16.5%. Take `COc1ccc2c(C(=O)NC(C)(C)COC(=O)CCl)n[nH]c2c1` [QW-326]: the “GPX4% inhibition at 200 (μM)” value in test [2] (generation 2) came out at 84.3 ± 8.9%.

Consider `Cn1nc(C(=O)NC(C)(C)COC(=O)CCl)c2cccnc21` [QW-426], for which the “GPX4% inhibition at 5 μM” value in test [2] (generation 2) was −11.3 ± 4.7%. For the molecule `CC=CC(=O)OCC(C)(C)NC(=O)c1nn(C)c2cc(-c3ccc(OC)c(Cl)c3)ccc12` [QW-644], in test [2], the “GPX4% inhibition at 2.5 μM” value is 31.4 ± 18.5%.

In the case of `CC(C)Oc1ccc(-c2ccc3c(C(=O)NC(C)(C)COC(=O)CCl)nn(C)c3c2)cn1` [QW-720], in test [2], the “GPX4 inhibitory activity, result in words” value is recorded as “substantially higher GPX4 inhibitory activities than QW-446” and the “GPX4% inhibition at 2.5 μM” value is recorded as 76.9 ± 4.2%. For `CCOc1ccc(-c2ccc3c(-n4cc(C(C)(C)COC(=O)CCl)nn4)nn(C)c3c2)cc1Cl` [QW-681], the “GPX4% inhibition at 2.5 μM” value in test [2] stood at 31.0 ± 4.9%. On to `CCOc1ccc(-c2ccc3c(C(=O)NC(C)(C)COC(=O)CCl)nn(Cc4ccc(Cl)cc4)c3c2)cc1Cl` [QW-840], for which the “GPX4% inhibition at 2.5 μM” value in test [2] (4th generation) is on record as 80.1 ± 11.8%. Turning to `Cn1nc(C(=O)NC(C)(C)COC(=O)CBr)c2ccc(Br)cc21` [QW-416], the “GPX4% inhibition at 5 μM” value in test [2] (generation 2) is reported as 25.3 ± 13.4%.

Consider `Cn1nc(C(=O)NC(C)(C)CNC(=O)CCl)c2ccc(-c3ccc(Cl)c(Cl)c3)cc21` [QW-636], for which, in test [2], the “GPX4% inhibition at 2.5 μM” value is listed as 50.2 ± 22.0% and the “GPX4% inhibition at 5 μM” value was 76.4 ± 32.7%. As for `Cn1nc(C(=O)NC(C)(C)COC(=O)CCl)c2ccc(-c3ccccc3Cl)cc21` [QW-492], in test [2], the “GPX4% inhibition at 5 μM” value came out at 45.7 ± 4.9%. For the molecule `Cn1nc(C(=O)NC(C)(C)COC(=O)CCl)c2ccc(-c3ccc(C=CCCl)cc3)cc21` [QW-575], the “GPX4% inhibition at 5 μM” value in test [2] is recorded as 35.9 ± 1.3%. The same measure, in the same setting: then `Cn1nc(C(=O)NC(C)(C)COC(=O)CCl)c2cc(-c3ccc(N4CCOCC4)c(Cl)c3)ccc21` [QW-585], with 23.3 ± 5.2%. Regarding `Cc1onc(C(=O)OCC(C)(C)NC(=O)c2n[nH]c3ccccc23)c1[N+](=O)[O-]` [QW-299], the “GPX4% inhibition at 200 (μM)” value in test [2] (generation 2) is reported as 6.3 ± 4.7%. Turning to `Cn1cc(C(=O)NC(C)(C)COC(=O)CCl)c2ccc(Br)cc21` [QW-325], in test [2] (generation 1, mean ± s.d., n = 3), the “GPX4% inhibition at 200 (μM)” value is 76.6 ± 3.9%. In the case of `CC(C)(COC(=O)CCl)NC(=O)c1n[nH]c2cc(-c3ccc(N4CCOCC4)c(Cl)c3)ccc12` [QW-583], in test [2], the “GPX4 inhibitory activity, result in words” value is reported as “slight loss of inhibitory activity” and the “GPX4% inhibition at 5 μM” value is 70.9 ± 6.7%.
